Series [1] can be described thus: in vivo activity against experimental infection in mice caused by Trichomonas vaginalis (ED50, Therapeutical Index). To be noted: mouse, in vivo, po; ratio LD50/ED50, per os mice; read-out: Therapeutical Index (TI). The protocol:
(§1) This activity, expressed as an ED50 value, is moreover coupled with a very low toxicity, expressed as an LD50 value, which was determined substantially according to the method described by Lichtfield and Wilcoxon, Journ. Pharm. Exp. Ther., 96, 99, 1949. In representative experiments, the following results have been obtained:
(§2) which indicate that the compound of the invention is a very useful and promising anti-Trichomonas agent. This becomes even more evident if one considers its Therapeutical Index (TI). Said parameter, which is mathematically expressed by the following ratio LD50 /ED50 gives a reliable idea about the safety of a drug and, considering how it is calculated, it is clear that the higher the TI, the safer the drug is; a high value of the Therapeutical Index means in fact a low effective dose (ED50) in comparison with the lethal dose (LD50). […] As an example, the 5-isopropyl-1-methyl-2-nitroimidazole, described in U.S. Pat. No. 3,499,967 and therein mentioned as one of the most outstanding in vivo active 2-nitroimidazoles against Trichomonas vaginalis, has a Therapeutical Index of 102.
(§3) 1. In the present experiment there are compared the anti-Trichomonas in vivo activities and the Therapeutical Indexes (TI) of the compound of the invention (hereinafter referred to as compound A) and four 5-hydroxy alkyl-2-nitroimidazoles described or falling within prior art patents. In these four compounds the hydroxy group is bound to a primary or secondary carbon atom which not necessarily is linked to the imidazole nucleus.
(§4) 2. In the following set of experiments there are evaluated the variations of Therapeutical Index (positive or negative) which are observed when some 5-alkyl-2 -nitroimidazoles known from the prior art are compared with the corresponding 5-hydroxyalkyl-2-nitroimidazoles, including the new compound A. Obviously all of the compounds are tested for their in vivo activity against Trichomonas vaginalis. […] With reference to the hereinbelow reported table and the first four pair of compounds, the results clearly indicate that the variations of Therapeutical Index which are observed are slightly positive or even negative i.e., that the Therapeutical Index of the known 5-hydroxyalkyl-2-nitroimidazoles either is worse than or is substantially the same as that of the corresponding 5-alkyl compounds: this practically means that no appreciable therapeutical results have been obtained, and that, considering the last pair of substances i.e., compound K and compound A (the compound of the invention), an unrelevant or unfavorable variation of the Therapeutical Index would have to be expected as well. On the contrary, a dramatically favorable and unpredictable variation of this parameter is observed and, clearly, this effect is to be interpreted as a remarkable improvement of the therapeutical (anti-Trichomonas) properties:
(§5) 3. In the third experiment there are evaluated the effects on the Therapeutical Index of the substitution with two methyl groups of two hydrogen atoms of the methyl radical at the 5-position of compound F namely [drawing 17] in comparison with the effects on the same parameter caused by the substitution with two methyl groups of the two hydrogen atoms of the hydroxymethyl group of compound B, namely [drawing 18] The compounds are obviously tested for their anti-Trichomonas in vivo properties.

Another series concerns Trichomonas vaginalis. The description is as above. To be noted: for in vivo anti-Trichomonas activity (in words): experimental infection in mice; for Therapeutical Index (comparison in words): mouse, in vivo; for ED50: po; for ED50 / ED50 mg/kg per os mice: per os, mice, Trichomonas vaginalis infection. The method, then:
as §1, §2, §3, §4, §5

Series [2] is described as follows: toxicity (LD50) per os in mice, substantially according to Lichtfield and Wilcoxon. Particulars: mouse, in vivo, po. The method, then:
This activity, expressed as an ED50 value, is moreover coupled with a very low toxicity, expressed as an LD50 value, which was determined substantially according to the method described by Lichtfield and Wilcoxon, Journ. Pharm. Exp. Ther., 96, 99, 1949. In representative experiments, the following results have been obtained: […]

Series [3] is described as follows: usual in vitro antibacterial tests. The text has this: Though the compound of the present invention is formally embraced by the foregoing general formula, it is to be noted that in the cited Belgian Patent only concrete examples of 5-hydroxy lower alkyl substituents are reported, wherein the hydroxy lower alkyl groups are 2-hydroxyethyl or 2-hydroxypropyl, i.e. only primary or secondary alcohols are disclosed.

The ED50 is the dose at which the effect has come halfway, by size or by number of responders. As usually defined, the LD50 is the dose at which mortality reaches 50%. High values mean a less toxic substance, low ones a more toxic substance.

Consider `COC(C)(C)c1cnc([N+](=O)[O-])n1C` [Compound of formula V, 5-[(1-methoxy-1-methyl)ethyl]-1-methyl-2-nitroimidazole], for which, in series [1], the selectivity ratio was 160. In addition, in the series on Trichomonas vaginalis, the “in vivo anti-Trichomonas activity (in words)” value was “valuable degree of in vivo anti-Trichomonas activity”, the “Therapeutical Index (comparison in words)” value is “not so high as that of the compound of formula I” and the 50% effect level (ED50) was put at a dose of 2.18 mg/kg. In addition, the “LD50 mg/kg per os mice” value in series [2] is recorded as 350 mg/kg.
Regarding `CC(C)c1cnc([N+](=O)[O-])n1C` [K, 5-isopropyl-1-methyl-2-nitroimidazole, reference compound], the selectivity ratio in series [1] was 102.
Turning to `CCCc1cnc([N+](=O)[O-])n1C` [reference compound], the selectivity ratio in series [1] worked out at 21.6. The same compound gave an ED50 in the series on Trichomonas vaginalis of 26 mg/kg. Further, in series [2], the LD50 amounted to 560 mg/kg.
`CCc1cnc([N+](=O)[O-])n1C` [reference compound]: the selectivity ratio in series [1] came to 38. In the series on Trichomonas vaginalis, this compound returned an ED50 of 9.8 mg/kg. In series [2], this compound displayed an LD50 of 372 mg/kg.
As for `CC(CO)c1cnc([N+](=O)[O-])n1C` (stereo not drawn) [drawing 14], in the series on Trichomonas vaginalis, the “ED50 mg/kg per os mice” value was 20 mg/kg.
As for `CC(CO)c1cnc([N+](=O)[O-])n1C` (stereo not drawn) [drawing 6], in series [1], the selectivity ratio was determined as 38.8. In the series with Trichomonas vaginalis, this compound showed an ED50 of 20 mg/kg. Moreover, in series [2], the LD50 turned out to be 776 mg/kg.
With `Cn1c(CO)cnc1[N+](=O)[O-]` [Compound B, 5-hydroxymethyl-1-methyl-2-nitroimidazole, reference compound], the “Therapeutical Index (comparison in words)” value with Trichomonas vaginalis was “much lower than that of compound A”.
`Cn1c(C(C)(C)O)cnc1[N+](=O)[O-]` [Compound A, 5-[(1-hydroxy-1-methyl)ethyl]-1-methyl-2-nitroimidazole]: the selectivity ratio in series [1] turned out to be 317. Besides, in the series on Trichomonas vaginalis, the “in vivo anti-Trichomonas activity (in words)” value was “far highest in vivo activity” and the 50% effect level (ED50) was put at a dose of 2.3 mg/kg. Moreover, the “in vivo anti-Trichomonas activity (in words)” value in the series with Trichomonas vaginalis (listed as compound of the invention) is “outstanding in vivo activity”. This compound came in with a 50% lethal dose (LD50) in series [2] of 730 mg/kg. Also, the “antibacterial properties in vitro (in words)” value in series [3] is on record as “very interesting antibacterial properties”.
`CC(C)c1cnc([N+](=O)[O-])n1C` [drawing 13] yielded an ED50 in the series on Trichomonas vaginalis of 2.6 mg/kg. Further, the “LD50 mg/kg per os mice” value in series [2] is on record as 265 mg/kg.
Take `Cc1cnc([N+](=O)[O-])n1C`: the selectivity ratio in series [1] amounted to 23.4. This compound also returned an ED50 in the series with Trichomonas vaginalis of 10.5 mg/kg. This compound gave an LD50 in series [2] of 246 mg/kg.
As to `CC(O)Cc1cnc([N+](=O)[O-])n1C` (stereo not drawn) [drawing 12], in the series on Trichomonas vaginalis, the “ED50 mg/kg per os mice” value was 17 mg/kg. Further, in series [2], the “LD50 mg/kg per os mice” value is on record as 670 mg/kg.
Consider `CC(O)Cc1cnc([N+](=O)[O-])n1C` (stereo not drawn) [drawing 5], for which, in series [1], the selectivity ratio turned out to be 39.4. The compound further gave an ED50 with Trichomonas vaginalis of 17 mg/kg. In series [2], this compound showed an LD50 of 670 mg/kg.
`Cn1c(CCO)cnc1[N+](=O)[O-]`: in series [1], the selectivity ratio was found to be 43. In the series with Trichomonas vaginalis, this compound registered a median effective dose (ED50) of 35 mg/kg. In addition, the LD50 in series [2] was determined as 1500 mg/kg.
For the compound `Cn1c(CO)cnc1[N+](=O)[O-]` [drawing 3], the selectivity ratio in series [1] came to 24.8. Further, the ED50 in the series on Trichomonas vaginalis was found to be 14.1 mg/kg. In series [2], this compound registered an LD50 of 350 mg/kg.

For the origin of these results see patent US4041168A, “Nitroimidazole derivative with antibacterial activity” (Gruppo Lepetit S.p.A., priority 1975, dated 1977).
